Data published in US20240301409A1, “Chemically Modified Small Activating RNA” (RACTIGEN THERAPEUTICS, priority 2021, published 2024).
Oligonucleotides are written 5' to 3', each unit as a sugar letter and its base; * is a phosphorothioate linkage, no mark a phosphodiester; rarer units and linkages stand in square brackets, end groups in braces. Plain capitals give the bases only. m = 2'-O-methyl; r = 2'-OH (RNA); f = 2'-fluoro

How the values were obtained:
RNase A = target: T1, RNase A (Bos taurus, UniProt P61823); assay: saRNA stability analysis in the presence of RNase A (agarose gel); details: incubation 0 to 96 hours
T1 sequence (P61823 27-150): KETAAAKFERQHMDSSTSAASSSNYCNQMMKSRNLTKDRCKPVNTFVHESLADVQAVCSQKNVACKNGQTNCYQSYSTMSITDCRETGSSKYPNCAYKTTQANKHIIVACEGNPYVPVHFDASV
Experimental: The duplexes obtained at each time point above were each added to 1 μL of 10× loading buffer, and then frozen in liquid nitrogen. After incubation, all samples were detected for the double-stranded RNA by 4% agarose gel electrophoresis, and the content of each duplex was analyzed by Image J software.
The duplexes obtained at each time point indicated above were each added to 1 μL of 10× loading buffer, and then frozen in liquid nitrogen. After incubation, all samples were detected for the double-stranded RNA by 4% agarose gel electrophoresis, and the content of each duplex was analyzed by Image J software.
saRNA (1.5 μL, 10 μM) was incubated at a final concentration of 0.02 mg/mL in PBS in the presence of RNase A (Amresco, OH, USA) at 37° C. for different durations. At the end of the incubation, the mixture was snap frozen in liquid nitrogen to stop nuclease activity. Samples were analyzed on a 4% agarose gel and examined for duplex degradation.
All chemically modified duplexes (Rag1-40-1 to Rag1-40-32) were incubated with 0.02 μg/L of RNase A for different durations (0 to 96 hours). At the end of the incubation, the size and amount of duplexes were detected by agarose gel electrophoresis.

[1] = tested on: Rag1-40 target sequence in the 3′ UTR of firefly luciferase, COS-1 cells; assay: Analysis of off-target effects (pOff-Target dual luciferase reporter in COS-1 cells); details: lysed 48 hours after transfection, luciferase activity
p21 gene [2] = assay: p21 mRNA expression by RT-qPCR in Ku-7-LG cells; format: cell-based, human; details: 10 nM
Experimental: (§1) Ku-7-LG and T24 cells were transfected with the indicated saRNA at a final concentration of 10 nM for 3 days. After transfection, the RNA was extracted with the Qiagen RNeasy kit. After reverse transcription, the ABI 7500 fast real-time PCR system was used for qPCR amplification. The GAPDH gene was amplified as an internal reference. […] Dashed line indicates duplex Rag1-40 with no chemical modification in comparison, and the values above the line indicate stronger activity. The control was blank transfection without oligonucleotide. dsCon2 is transfected with a double-stranded scramble RNA. The value of the ordinate represents the mean±SD of 2 repeated treatments.
(§2) The control and dsCon2 were blank transfection and scramble dsRNA transfection, respectively. The values in the ordinate represent the mean±SD of 2 repeated treatments.
(§3) Human bladder cancer cells Ku-7-LG (ATCC), J82 (ATCC) and T24 (ATCC) were cultured in McCoy medium (Gibco) comprising 10% calf serum (Sigma-Aldrich) and 1% penicillin/Streptomycin (Gibco). Cells were cultured at 37° C. under 5% CO2. Ku-7-LG, J82 and T24 cells were plated into 12-well plates at 10×10^4 cells per well, transfected with the small RNA at a concentration of 10 nM (unless otherwise specified) for three days, using RNAiMax (Invitrogen, Carlsbad, CA) according to the manufacturer's instructions. Two replicate wells were set for each treatment.
(§4) After transfection, the medium was discarded and to each well 500 μl cell lysate was added and incubated at room temperature for 5 minutes. RNA was extracted with the Qiagen RNeasy kit, and after reverse transcription, qPCR analysis was performed on the ABI 7500 Fast Real-time PCR system (Applied Biosystems). Each sample was amplified in 3 replicate wells.
(§5) The PCR reaction conditions are: 95° C. for 30 seconds, 95° C. for 5 seconds, 60° C. for 30 seconds, and 40 cycles of amplification. The GAPDH gene was amplified as an internal reference at the same time. p21 was amplified with the p21F1/R1 primer pair, and the specific sequences of the amplification primers are shown in Table 1.
(§6) In order to calculate the expression value (Erel) of p21 (target gene) of a saRNA transfection sample relative to the control treatment, Formula 1 is used to input the Ct values of the target gene and the internal reference gene for calculation.
(§7) wherein, CtTm is the Ct value of the target gene from the control treatment sample; CtTs is the Ct value of the target gene from the saRNA treated sample; CtRm is the Ct value of the internal reference gene from the control treatment sample; and CtRs is the Ct value of the internal reference gene from the saRNA treated sample.
(§8) The main purpose of introducing chemical modifications to regulatory oligonucleotides of a gene is to improve their pharmaceutical properties, including enhancing in vivo stability and mitigating off-target effects (e.g., sequence-dependent targeting of unrelated genes, sequence-dependent or independent immune stimulation), while maintaining their gene regulatory capacity (gene knockdown or activation). To assess the effect of chemical modification on the RNAa activity of saRNA on the p21 gene, 10 nM unmodified (Rag1-40) and modified (Rag1-40-1 to Rag1-40-34) duplexes were transfected into Ku-7-LG and T24 cells, respectively. After 72 hours, the mRNA expression level of p21 was assessed by RT-qPCR. All duplexes induced p21 mRNA expression in all […] at least double that of the control.
(§9) In order to further evaluate the expression level of p21 mRNA after the different durations of treatment by the chemically modified saRNA duplexes, two saRNAs (RAG1-40-31 and RAG1-40-53) were randomly selected from the above chemically modified saRNA duplexes for detection. RAG1-40-31 and RAG1-40-53 were transfected into Ku-7-LG and T24 cells at a final concentration of 10 nM, for 1, 2, 3, 4, 7 and 9 days, respectively. Each treatment was set up in duplicate. […]

p21 gene [3] = assay: p21 mRNA expression by RT-qPCR in T24 cells; format: cell-based, human; details: 10 nM
Experimental: as §1, §2, §3, §4, §5, §6, §7, §8, §9

Ku-7-LG cells = assay: Cell cycle detection by flow cytometry in Ku-7-LG cells; format: cell-based, human; details: 48 hours
Experimental: RAG1-40-31 and RAG1-40-53 were transfected into Ku-7-LG cells at the final concentrations of 0.1, 1, 10 and 50 nM, and the transfection duration was 48 hours. Two replicate wells were used for each treatment. After transfection, the cell cycle was analyzed by flow cytometry, and the collected data were analyzed by MotFit software.
After transfection, the supernatant was discarded to collect cells. To each well 500 μL PBS was added for one wash and then discarded. To each well 100 μL trypsin was further added. 900 μL medium was added to stop digestion before transferring to a 1.5 mL centrifuge tube. All the cells were collected through centrifugation (400 rcf, 5 min) and counted (2×10^5 cells/200 μL PBS). Cold 70% absolute ethanol was added before incubation overnight at 4° C. After washing twice with PBS, 200 μL Krishan buffer was added before incubation at 4° C. for 1 hour. After washing twice with PBS, the supernatant was discarded and 200 μL PBS was added for cell re-suspension, then the cells were transferred to a 96-well plate and analyzed by flow cytometer. The collected data were analyzed with MotFit software.
In order to study the mechanism of cellular proliferation suppression, change in cell cycle was analyzed using flow cytometry in this example. Randomly selected saRNAs RAG1-40-31 and RAG1-40-53 were transfected into Ku-7-LG cells at final concentrations of 0.1, 1, 10 and 50 nM, respectively, for 48 hours. Each treatment was set in duplicate. Cell cycle was detected and analyzed as described in the general protocol above.

Substance: Rag1-40-14: saRNA duplex: sense fCfCAACUCAUUCUCCAAGfUfC (SEQ ID NO 14); antisense fU*A*fCfUfUGGAGAAfUGAGfUfUGG*fC*A (SEQ ID NO 11) (sense CCAACUCAUUCUCCAAGUC; antisense UACUUGGAGAAUGAGUUGGCA; 2'-F modifications, phosphorothioates; modified_base (1)..(19) (1,2,18,19)=2′-fluoro; modified_base (1)..(21) (1,2,3,19,20,21)=phosphorothioate (PS) backbone modification; modified_base (1)..(20) (1,3,4,5,12,16,17,20)=2′-fluoro)
- degradation of duplex at 96 hours (RNase A): little or no signs of degradation
- off-target effect compared to unmodified Rag1-40, in words [1]: mitigated or similar off-target effects

Substance: Rag1-40-19: saRNA duplex: sense mCmCAACUCAUUCUCCAAG*U*C (SEQ ID NO 15); antisense fUmAfCfUfUmGmGmAmGmAmAfUmGmAmGfUfUmGmGfCmA (SEQ ID NO 8) (sense mCmCrArArCrUrCrArUrUrCrUrCrCrArArG*rU*rC)
- degradation of duplex at 96 hours (RNase A): little or no signs of degradation
- off-target effect compared to unmodified Rag1-40, in words [1]: mitigated or similar off-target effects

Substance: Rag1-40-1: saRNA duplex: sense mCmCAACUCAUUCUCCAAGmUmC (SEQ ID NO 5); antisense fUAfCfUfUGGAGAAfUGAGfUfUGGfCA (SEQ ID NO 6) (sense CCAACUCAUUCUCCAAGUC; antisense UACUUGGAGAAUGAGUUGGCA; 2'-OMe and 2'-F modifications; modified_base (1)..(19) (1,2,18,19)=2′-O-methyl(2′-OMe); modified_base (1)..(20) (1,3,4,5,12,16,17,20)=2′-fluoro)
- degradation of duplex at 96 hours (RNase A): little or no signs of degradation
- off-target effect compared to unmodified Rag1-40, in words [1]: completely inhibited

Substance: RAG1-40-53: saRNA duplex: sense mCmCAACfUCAfUfUCfUCCAAG*mU*mC (SEQ ID NO 24); antisense fUAfCfUfUGGAGAAfUGAGfUfUGG*fC*fA (SEQ ID NO 25) (sense CCAACUCAUUCUCCAAGUC; antisense UACUUGGAGAAUGAGUUGGCA; 2'-F, 2'-OMe, phosphorothioate modifications; modified_base (1)..(19) (1,2,18,19)=2′-O-methyl(2′-OMe); modified_base (6)..(12) (6,9,10,12)=2′-fluoro; modified_base (17)..(19) (17,18,19)=phosphorothioate (PS) backbone modification; modified_base (1)..(21) (1,3,4,5,12,16,17,20,21)=2′-fluoro; modified_base (20)..(21) (20,21)=phosphorothioate (PS) backbone modification)
- increase of expression level of p21 mRNA compared with the control group (p21 gene [2]; 1 day): 1.4 fold
- increase of expression level of p21 mRNA compared with the control group (p21 gene [2]; 2 days): 13.0 fold
- increase of expression level of p21 mRNA compared with the control group (p21 gene [2]; 3 days): 9.1 fold
- increase of expression level of p21 mRNA compared with the control group (p21 gene [2]; 4 days): 4.5 fold
- increase of expression level of p21 mRNA compared with the control group (p21 gene [2]; 7 days): 3.2 fold
- increase of expression level of p21 mRNA compared with the control group (p21 gene [2]; 9 days): 4.1 fold
- increase of expression level of p21 mRNA compared with the control group (p21 gene [3]; 1 day): 2.2 fold
- increase of expression level of p21 mRNA compared with the control group (p21 gene [3]; 2 days): 3.5 fold
- increase of expression level of p21 mRNA compared with the control group (p21 gene [3]; 3 days): 7.8 fold
- increase of expression level of p21 mRNA compared with the control group (p21 gene [3]; 4 days): 4.5 fold
- increase of expression level of p21 mRNA compared with the control group (p21 gene [3]; 7 days): 1.2 fold
- increase of expression level of p21 mRNA compared with the control group (p21 gene [3]; 9 days): 1.1 fold
- percentage of cells in DNA anaphase/mitosis (G2/M) (Ku-7-LG cells; 0.1 nM): 7%
- percentage of cells in DNA replication phase (S phase) (Ku-7-LG cells; 0.1 nM): 36%
- percentage of cells in prophase of DNA synthesis (G0/G1) (Ku-7-LG cells; 0.1 nM): 57%
- percentage of cells in DNA anaphase/mitosis (G2/M) (Ku-7-LG cells; 1 nM): 10%
- percentage of cells in DNA replication phase (S phase) (Ku-7-LG cells; 1 nM): 24%
- percentage of cells in prophase of DNA synthesis (G0/G1) (Ku-7-LG cells; 1 nM): 66%
- percentage of cells in DNA anaphase/mitosis (G2/M) (Ku-7-LG cells; 10 nM): 9%
- percentage of cells in DNA replication phase (S phase) (Ku-7-LG cells; 10 nM): 12%
- percentage of cells in prophase of DNA synthesis (G0/G1) (Ku-7-LG cells; 10 nM): 79%
- percentage of cells in DNA anaphase/mitosis (G2/M) (Ku-7-LG cells; 50 nM): 8%
- percentage of cells in DNA replication phase (S phase) (Ku-7-LG cells; 50 nM): 16%
- percentage of cells in prophase of DNA synthesis (G0/G1) (Ku-7-LG cells; 50 nM): 76%
